Common to all, as to assay: MIC, microdilution broth method (NCCLS)
Format in all cases: cell-based

One assay relates to S. pneumoniae ATCC49619. As to conditions: Streptococcus pneumoniae, read-out: MIC Values, D: S. pneumoniae ATCC49619. How it is done: (§1) Minimal inhibitory concentration (MIC) has been an indicator of in vitro antibacterial activity widely used in the art. The in vitro antimicrobial activity of the compounds was determined by the microdilution broth method following the test method from the National Committee for Clinical Laboratory Standards (NCCLS). This method is described in the NCCLS Document M7-A4, Vol.17, No.2, “Methods for Dilution Antimicrobial Susceptibility Test for Bacteria that Grow Aerobically—Fourth Edition”, which is incorporated herein by reference.
(§2) In this method two-fold serial dilutions of drug in cation adjusted Mueller-Hinton broth are added to wells in microdilution trays. The test organisms are prepared by adjusting the turbidity of actively growing broth cultures so that the final concentration of test organism after it is added to the wells is approximately 5×10^4 CFU/well.
(§3) Following inoculation of the microdilution trays, the trays are incubated at 35 °C for 16-20 hours and then read. […] The amount of growth in the wells containing the test compound is compared with the amount of growth in the growth-control wells (no test compound) used in each tray. As set forth in Table 1, compounds of the present invention were tested against a variety of Gram positive and Gram negative pathogenic bacteria resulting in a range of activities depending on the organism tested.

In another assay the test system is H. influenzae ATCC49247. As to conditions: Haemophilus influenzae, read-out: MIC Values, E: H. influenzae ATCC49247. How it is done:
as §1, §2, §3

Another assay has as its system E. coli OC2605. As to conditions: Escherichia coli. How it is done: as §1, §2, §3
The test system of another assay is E. faecalis ATCC29212. Conditions: Enterococcus faecalis, read-out: MIC Values, C: E. faecalis ATCC29212. The procedure:
as §1, §2, §3

The test system of a further assay is S. aureus ATCC29213. Conditions: Staphylococcus aureus, read-out: MIC Values, B: S. aureus ATCC29213. The procedure:
as §1, §2, §3

[1] abbreviates: Table 2, 3,6-Dicarbamoyl Macrolide Derivatives.
Where [2] appears, read: Table 2, 3,6-Dicarbamoyl Macrolide Derivatives, read-out: MIC Values, A: E. coil OC2605.
[3] abbreviates: Table 1, 6-Carbamoyl-3-Acyl Macrolide Derivatives.
Where [4] appears, read: Table 1, 6-Carbamoyl-3-Acyl Macrolide Derivatives, read-out: MIC Values, A: E. coli OC2605.

≈ marks a conversion by molar mass, not a printed value. Where two headings read alike, the source gives them in different places.

For `CC[C@H]1OC(=O)[C@H](C)[C@@H](OC(=O)N(CC)c2cccnc2)[C@H](C)[C@@H](O[C@@H]2O[C@H](C)C[C@H](N(C)C)[C@H]2O)[C@](C)(OC(=O)NC/C=C/c2ccc(-c3ncccn3)cc2)C[C@@H](C)C(=O)[C@H](C)[C@H]2NC(=O)O[C@@]21C` [Compound 65], the MIC with S. pneumoniae ATCC49619 (setting [1]) was 0.25 µg/mL (≈ 0.254 µM); in the assay on H. influenzae ATCC49247 (setting [1]), 8 µg/mL (≈ 8.11 µM); with E. coli OC2605 (setting [2]), > 16 µg/mL; with E. faecalis ATCC29212 (setting [1]), 1 µg/mL (≈ 1.01 µM); in the assay with S. aureus ATCC29213 (setting [1]) it was 1 µg/mL (≈ 1.01 µM).

`CC[C@H]1OC(=O)[C@H](C)[C@@H](OC(=O)N(C)Cc2cccnc2)[C@H](C)[C@@H](O[C@@H]2O[C@H](C)C[C@H](N(C)C)[C@H]2O)[C@](C)(OC(=O)NC/C=C/c2ccc(-c3ncccn3)cc2)C[C@@H](C)C(=O)[C@H](C)[C@H]2NC(=O)O[C@@]21C` [Compound 58]: the MIC with S. pneumoniae ATCC49619 (setting [1]) was 0.03 µg/mL (≈ 0.0304 µM); in the assay with H. influenzae ATCC49247 (setting [1]), 2 µg/mL (≈ 2.03 µM); with E. coli OC2605 (setting [2]) it was > 16 µg/mL; in the assay with E. faecalis ATCC29212 (setting [1]), 0.25 µg/mL (≈ 0.254 µM); in the assay with S. aureus ATCC29213 (setting [1]), 0.25 µg/mL (≈ 0.254 µM).

As for `CC[C@H]1OC(=O)[C@H](C)[C@@H](OC(=O)C(C)C)[C@H](C)[C@@H](O[C@@H]2O[C@H](C)C[C@H](N(C)C)[C@H]2O)[C@](C)(OC(=O)NC/C=C/c2ccnc3ccccc23)C[C@@H](C)C(=O)[C@H](C)[C@H]2NC(=O)O[C@@]21C` [Compound 33], the MIC with S. pneumoniae ATCC49619 (setting [3]) was determined as 0.03 µg/mL (≈ 0.034 µM); in the assay on H. influenzae ATCC49247 (setting [3]) it was 2 µg/mL (≈ 2.27 µM); with E. coli OC2605 (setting [4]) it was 16 µg/mL (≈ 18.2 µM); with E. faecalis ATCC29212 (setting [3]) it was 0.25 µg/mL (≈ 0.284 µM); in the assay with S. aureus ATCC29213 (setting [3]) it was 0.5 µg/mL (≈ 0.567 µM).

For `CC[C@H]1OC(=O)[C@H](C)[C@@H](OC(=O)C(C)C)[C@H](C)[C@@H](O[C@@H]2O[C@H](C)C[C@H](N(C)C)[C@H]2O)[C@](C)(OC(=O)NC/C=C/c2ccc(-c3ccn(C)n3)cc2)C[C@@H](C)C(=O)[C@H](C)[C@H]2NC(=O)O[C@@]21C` [Compound 49], the results for the MIC in the assay with S. pneumoniae ATCC49619 (setting [3]), in the assay with E. faecalis ATCC29212 (setting [3]) and in the assay on S. aureus ATCC29213 (setting [3]) were 0.06 µg/mL (≈ 0.0659 µM), 1 µg/mL (≈ 1.1 µM) and 1 µg/mL (≈ 1.1 µM), respectively.

For the molecule `CC[C@H]1OC(=O)[C@H](C)[C@@H](OC(=O)Cc2ccccn2)[C@H](C)[C@@H](O[C@@H]2O[C@H](C)C[C@H](N(C)C)[C@H]2O)[C@](C)(OC(=O)NC/C=C/c2ccc(-c3ncccn3)cc2)C[C@@H](C)C(=O)[C@H](C)[C@H]2NC(=O)O[C@@]21C` [Compound 2], the MIC in the assay on H. influenzae ATCC49247 (setting [3]) came to 1 µg/mL (≈ 1.04 µM); in the assay on E. coli OC2605 (setting [4]), 16 µg/mL (≈ 16.7 µM); in the assay with E. faecalis ATCC29212 (setting [3]) it was 0.25 µg/mL (≈ 0.261 µM); in the assay on S. aureus ATCC29213 (setting [3]), 0.5 µg/mL (≈ 0.522 µM).

As to `CC[C@H]1OC(=O)[C@H](C)[C@@H](OC(=O)N(CC)CC)[C@H](C)[C@@H](O[C@@H]2O[C@H](C)C[C@H](N(C)C)[C@H]2O)[C@](C)(OC(=O)NC/C=C/c2ccc(-n3cccn3)cc2)C[C@@H](C)C(=O)[C@H](C)[C@H]2NC(=O)O[C@@]21C` [Compound 70], the MIC with S. pneumoniae ATCC49619 (setting [1]) came to 0.06 µg/mL (≈ 0.0649 µM); in the assay with E. faecalis ATCC29212 (setting [1]), 0.5 µg/mL (≈ 0.54 µM); with S. aureus ATCC29213 (setting [1]), 1 µg/mL (≈ 1.08 µM).

As for `CC[C@H]1OC(=O)[C@H](C)[C@@H](OC(=O)C(C)C)[C@H](C)[C@@H](O[C@@H]2O[C@H](C)C[C@H](N(C)C)[C@H]2O)[C@](C)(OC(=O)NC/C=C/c2ccc(-c3cnccn3)cc2)C[C@@H](C)C(=O)[C@H](C)[C@H]2NC(=O)O[C@@]21C` [Compound 45], the figures for the MIC in the assay on S. pneumoniae ATCC49619 (setting [3]), in the assay on E. faecalis ATCC29212 (setting [3]) and in the assay with S. aureus ATCC29213 (setting [3]) were 0.06 µg/mL (≈ 0.0661 µM), 0.5 µg/mL (≈ 0.551 µM) and 0.5 µg/mL (≈ 0.551 µM), respectively.

Take `CC[C@H]1OC(=O)[C@H](C)[C@@H](OC(=O)N(CC)CC)[C@H](C)[C@@H](O[C@@H]2O[C@H](C)C[C@H](N(C)C)[C@H]2O)[C@](C)(OC(=O)NC/C=C/c2ccc(-c3cccnn3)cc2)C[C@@H](C)C(=O)[C@H](C)[C@H]2NC(=O)O[C@@]21C` [Compound 71]: the MIC came out at 0.06 µg/mL (≈ 0.064 µM) in the assay on S. pneumoniae ATCC49619 (setting [1]), 1 µg/mL (≈ 1.07 µM) in the assay on E. faecalis ATCC29212 (setting [1]) and 1 µg/mL (≈ 1.07 µM) with S. aureus ATCC29213 (setting [1]).

Source of the values: US6825172B2, “3-descladinosyl-6-O-carbamoyl and 6-O-carbonoyl macrolide antibacterial agents” (Janssen Pharmaceutica, NV, priority 2002, dated 2004).
